Assays:
[1] = biological target: EGFR del19/C797S (Homo sapiens, UniProt P00533, C797S/DEL746-750); test: Biochemical EGFR kinase assay (Lance Ultra TR-FRET), double mutant del19/C797S; settings: Km ATP; read-out: IC50 del19/C797S (nM) Km ATP
How it was run: (§1)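 Enzyme reactions lasted 1 hour at room temperature with test compounds between 0.003 and 10 μM, followed by 10 mM EDTA quench.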

[2] = biological target: EGFR L858R/T790M/C797S (Homo sapiens, UniProt P00533, C797S/L858R/T790M); test: Biochemical EGFR kinase assay (Lance Ultra TR-FRET), triple mutant L858R/T790M/C797S; settings: Km ATP; read-out: IC50 L858R/T790M/C797S (nM) Km ATP
EGFR L858R/T790M/C797S, sequence (P00533 25-1210 T790M/C797S/L858R): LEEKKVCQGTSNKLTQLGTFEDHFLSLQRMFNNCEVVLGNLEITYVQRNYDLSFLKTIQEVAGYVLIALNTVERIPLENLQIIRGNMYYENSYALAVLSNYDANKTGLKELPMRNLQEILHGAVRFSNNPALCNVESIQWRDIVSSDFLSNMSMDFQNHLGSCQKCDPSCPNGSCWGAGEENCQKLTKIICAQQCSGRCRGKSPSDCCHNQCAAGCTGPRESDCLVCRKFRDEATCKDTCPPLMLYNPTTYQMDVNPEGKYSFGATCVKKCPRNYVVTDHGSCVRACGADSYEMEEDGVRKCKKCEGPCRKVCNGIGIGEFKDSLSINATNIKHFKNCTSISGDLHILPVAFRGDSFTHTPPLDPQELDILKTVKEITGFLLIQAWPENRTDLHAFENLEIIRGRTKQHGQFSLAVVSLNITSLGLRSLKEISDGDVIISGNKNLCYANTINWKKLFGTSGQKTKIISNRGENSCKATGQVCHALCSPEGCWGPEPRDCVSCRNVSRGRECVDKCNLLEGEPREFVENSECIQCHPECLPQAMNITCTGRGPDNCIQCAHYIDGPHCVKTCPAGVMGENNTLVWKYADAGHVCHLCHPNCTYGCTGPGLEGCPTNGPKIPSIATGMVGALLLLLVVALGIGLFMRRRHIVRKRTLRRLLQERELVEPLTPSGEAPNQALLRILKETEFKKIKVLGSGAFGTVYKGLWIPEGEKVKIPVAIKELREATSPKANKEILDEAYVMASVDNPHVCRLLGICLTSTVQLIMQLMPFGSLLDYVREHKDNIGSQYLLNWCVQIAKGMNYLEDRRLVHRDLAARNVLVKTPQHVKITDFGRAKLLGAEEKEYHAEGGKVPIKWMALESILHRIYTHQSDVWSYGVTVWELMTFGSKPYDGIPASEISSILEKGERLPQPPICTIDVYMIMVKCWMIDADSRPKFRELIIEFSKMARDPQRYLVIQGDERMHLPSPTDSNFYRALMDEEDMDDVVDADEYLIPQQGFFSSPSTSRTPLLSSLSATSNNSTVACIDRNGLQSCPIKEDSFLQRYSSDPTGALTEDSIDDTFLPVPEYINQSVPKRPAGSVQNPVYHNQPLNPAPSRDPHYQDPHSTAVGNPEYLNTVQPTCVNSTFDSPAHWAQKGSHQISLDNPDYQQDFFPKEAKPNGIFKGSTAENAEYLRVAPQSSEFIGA
How it was run: as §1

[3] = biological target: EGFR L858R/C797S (Homo sapiens, UniProt P00533, C797S/L858R); test: Biochemical EGFR kinase assay (Lance Ultra TR-FRET), double mutant L858R/C797S; settings: Km ATP; read-out: IC50 L858R/C797S (nM) Km ATP
EGFR L858R/C797S, sequence (P00533 25-1210 C797S/L858R): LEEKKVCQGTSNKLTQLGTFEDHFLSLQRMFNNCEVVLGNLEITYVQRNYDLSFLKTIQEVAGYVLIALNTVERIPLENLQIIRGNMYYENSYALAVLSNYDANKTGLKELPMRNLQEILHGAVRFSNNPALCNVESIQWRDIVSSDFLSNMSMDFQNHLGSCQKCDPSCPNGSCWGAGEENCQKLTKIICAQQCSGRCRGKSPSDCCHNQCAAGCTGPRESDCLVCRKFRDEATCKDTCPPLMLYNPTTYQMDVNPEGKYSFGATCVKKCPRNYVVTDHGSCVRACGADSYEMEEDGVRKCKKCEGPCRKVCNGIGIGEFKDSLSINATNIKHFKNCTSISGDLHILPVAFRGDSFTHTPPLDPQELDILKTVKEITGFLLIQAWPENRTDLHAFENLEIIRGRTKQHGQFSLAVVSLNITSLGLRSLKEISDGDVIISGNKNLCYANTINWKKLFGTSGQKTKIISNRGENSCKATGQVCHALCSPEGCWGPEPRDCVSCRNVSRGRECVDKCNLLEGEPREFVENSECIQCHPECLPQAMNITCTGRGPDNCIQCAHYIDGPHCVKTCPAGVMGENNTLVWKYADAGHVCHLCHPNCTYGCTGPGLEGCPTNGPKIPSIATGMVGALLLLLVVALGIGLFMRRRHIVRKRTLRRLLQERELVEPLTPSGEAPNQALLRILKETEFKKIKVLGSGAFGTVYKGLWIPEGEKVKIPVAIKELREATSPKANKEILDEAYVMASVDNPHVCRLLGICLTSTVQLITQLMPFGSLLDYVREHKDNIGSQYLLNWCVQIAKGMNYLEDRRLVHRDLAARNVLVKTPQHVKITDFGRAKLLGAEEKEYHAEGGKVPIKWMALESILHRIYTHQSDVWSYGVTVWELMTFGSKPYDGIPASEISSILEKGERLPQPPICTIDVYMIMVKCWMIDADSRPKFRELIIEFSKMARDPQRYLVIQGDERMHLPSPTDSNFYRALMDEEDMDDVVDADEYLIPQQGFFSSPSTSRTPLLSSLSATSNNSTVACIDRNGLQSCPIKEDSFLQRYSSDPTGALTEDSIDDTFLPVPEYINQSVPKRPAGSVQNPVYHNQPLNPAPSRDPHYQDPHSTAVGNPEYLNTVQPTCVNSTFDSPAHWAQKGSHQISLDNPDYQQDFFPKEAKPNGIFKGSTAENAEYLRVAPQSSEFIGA
How it was run: as §1

[4] = biological target: EGFR wildtype (WT) (Homo sapiens, UniProt P00533); test: Biochemical EGFR kinase assay (Lance Ultra TR-FRET), wildtype; settings: Km ATP; read-out: IC50 WT (nM) Km ATP
How it was run: as §1

[5] = biological target: EGFR del19/T790M/C797S (Homo sapiens, UniProt P00533, C797S/DEL746-750/T790M); test: Biochemical EGFR kinase assay (Lance Ultra TR-FRET), triple mutant del19/T790M/C797S; settings: Km ATP; read-out: IC50 del19/T790M/C797S (nM) Km ATP
EGFR del19/T790M/C797S, sequence (P00533 with tags, fused parts or gaps DEL746-750/T790M/C797S): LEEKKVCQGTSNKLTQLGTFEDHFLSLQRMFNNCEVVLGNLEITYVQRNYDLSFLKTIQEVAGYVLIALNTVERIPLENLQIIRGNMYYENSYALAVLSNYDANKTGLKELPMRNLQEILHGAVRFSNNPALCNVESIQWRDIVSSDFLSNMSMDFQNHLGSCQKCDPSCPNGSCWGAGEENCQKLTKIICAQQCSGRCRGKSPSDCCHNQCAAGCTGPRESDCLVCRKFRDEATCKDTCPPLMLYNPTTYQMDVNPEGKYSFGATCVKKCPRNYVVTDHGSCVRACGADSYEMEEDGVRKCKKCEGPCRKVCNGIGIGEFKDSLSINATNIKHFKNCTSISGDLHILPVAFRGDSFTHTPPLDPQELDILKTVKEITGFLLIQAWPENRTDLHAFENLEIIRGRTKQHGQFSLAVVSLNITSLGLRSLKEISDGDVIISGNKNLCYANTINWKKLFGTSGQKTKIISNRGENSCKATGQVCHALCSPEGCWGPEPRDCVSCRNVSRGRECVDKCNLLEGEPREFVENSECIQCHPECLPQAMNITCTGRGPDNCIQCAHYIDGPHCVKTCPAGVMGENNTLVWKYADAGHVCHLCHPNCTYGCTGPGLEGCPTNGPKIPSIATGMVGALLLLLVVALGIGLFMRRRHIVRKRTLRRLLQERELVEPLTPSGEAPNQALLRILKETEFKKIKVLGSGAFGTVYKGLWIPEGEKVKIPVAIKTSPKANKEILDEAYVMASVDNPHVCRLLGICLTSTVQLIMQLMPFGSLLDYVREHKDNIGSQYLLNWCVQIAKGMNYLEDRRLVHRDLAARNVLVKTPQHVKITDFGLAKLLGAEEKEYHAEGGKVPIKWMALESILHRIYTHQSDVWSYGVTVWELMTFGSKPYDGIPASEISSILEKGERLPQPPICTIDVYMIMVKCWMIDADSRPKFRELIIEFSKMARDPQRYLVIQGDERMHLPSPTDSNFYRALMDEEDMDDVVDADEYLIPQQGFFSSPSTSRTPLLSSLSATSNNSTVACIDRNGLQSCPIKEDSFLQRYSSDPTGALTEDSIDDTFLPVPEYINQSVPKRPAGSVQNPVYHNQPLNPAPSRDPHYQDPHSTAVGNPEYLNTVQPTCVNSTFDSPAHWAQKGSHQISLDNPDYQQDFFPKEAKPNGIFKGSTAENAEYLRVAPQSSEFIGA
How it was run: as §1

EGFR del19/C797S, sequence (P00533 with tags, fused parts or gaps DEL746-750/C797S): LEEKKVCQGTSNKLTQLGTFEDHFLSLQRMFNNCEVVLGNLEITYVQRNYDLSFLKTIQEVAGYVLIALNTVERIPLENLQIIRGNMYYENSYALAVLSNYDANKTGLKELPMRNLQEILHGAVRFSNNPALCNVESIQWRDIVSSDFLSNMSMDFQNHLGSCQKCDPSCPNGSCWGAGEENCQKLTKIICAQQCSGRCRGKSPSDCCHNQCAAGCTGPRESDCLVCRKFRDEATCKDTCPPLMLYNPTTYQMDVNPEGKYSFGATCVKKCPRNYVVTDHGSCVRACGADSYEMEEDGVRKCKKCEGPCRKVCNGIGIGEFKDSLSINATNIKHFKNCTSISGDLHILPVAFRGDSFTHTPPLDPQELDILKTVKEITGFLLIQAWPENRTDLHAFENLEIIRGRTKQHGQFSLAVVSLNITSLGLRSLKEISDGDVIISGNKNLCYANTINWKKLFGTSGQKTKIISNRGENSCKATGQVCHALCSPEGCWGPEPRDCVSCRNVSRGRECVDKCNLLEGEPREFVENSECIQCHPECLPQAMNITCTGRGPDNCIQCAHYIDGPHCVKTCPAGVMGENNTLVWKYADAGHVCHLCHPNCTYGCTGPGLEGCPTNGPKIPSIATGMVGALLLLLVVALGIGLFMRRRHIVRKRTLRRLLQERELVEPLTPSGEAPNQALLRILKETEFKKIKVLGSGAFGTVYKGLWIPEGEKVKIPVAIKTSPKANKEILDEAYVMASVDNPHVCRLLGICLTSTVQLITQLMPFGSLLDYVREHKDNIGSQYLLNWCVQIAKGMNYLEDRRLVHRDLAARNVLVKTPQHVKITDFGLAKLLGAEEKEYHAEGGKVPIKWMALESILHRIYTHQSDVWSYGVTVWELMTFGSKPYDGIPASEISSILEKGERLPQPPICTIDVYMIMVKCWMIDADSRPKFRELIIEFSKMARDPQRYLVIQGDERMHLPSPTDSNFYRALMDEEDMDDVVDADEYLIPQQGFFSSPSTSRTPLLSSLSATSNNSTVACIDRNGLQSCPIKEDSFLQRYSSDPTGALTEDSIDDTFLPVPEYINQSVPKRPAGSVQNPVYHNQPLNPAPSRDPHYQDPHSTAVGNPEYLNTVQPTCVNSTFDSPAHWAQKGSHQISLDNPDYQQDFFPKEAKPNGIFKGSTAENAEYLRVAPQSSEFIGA

Row | Compound | IC50 [1] [nM] | IC50 [2] [nM] | IC50 [3] [nM] | IC50 [4] [nM] | IC50 [5] [nM]
1 | C[C@]1(O)CC[C@@H](Nc2cc(Nc3ccnc(-c4cnn(S(=O)(=O)C5CC5)c4)n3)ncc2-n2ccc(C(F)(F)F)n2)CC1 [Example 167, (1s,4s)-4-((2-((2-(1-(Cyclopropylsulfonyl)-1H-pyrazol-4-yl)pyrimidin-4-yl)amino)-5-(3-(trifluoromethyl)-1H-pyrazol-1-yl)pyridin-4-yl)amino)-1-methylcyclohexan-1-ol] | 58.9 | 0.4 | 47.7 | 129 | 0.6
2 | Cc1ccn(-c2cnc(Nc3ccnc(-c4cnn(S(=O)(=O)C5CC5)c4)n3)cc2N[C@H]2CC[C@@](C)(O)CC2)n1 [Example 168, (1s,4s)-4-((2-((2-(1-(Cyclopropylsulfonyl)-1H-pyrazol-4-yl)pyrimidin-4-yl)amino)-5-(3-methyl-1H-pyrazol-1-yl)pyridin-4-yl)amino)-1-methylcyclohexan-1-ol] | 6.5 | 0.1 | 3 | 26.9 | 0.2
3 | COc1cc(-c2nccc(Nc3cc(N[C@H]4CC[C@@](C)(O)CC4)c(-c4ccn(C(F)F)n4)cn3)n2)ccn1 [Example 169, (1s,4s)-4-((5-(1-(Difluoromethyl)-1H-pyrazol-3-yl)-2-((2-(2-methoxypyridin-4-yl)pyrimidin-4-yl)amino)pyridin-4-yl)amino)-1-methylcyclohexan-1-ol] | 110 | 15.5 | 43.4 | 325 | 20.1
4 | C[C@]1(O)CC[C@@H](Nc2cc(Nc3ccnc(-c4ccc(F)nc4F)n3)ncc2-c2ccn(C(F)F)n2)CC1 [Example 170, (1s,4s)-4-((5-(1-(Difluoromethyl)-1H-pyrazol-3-yl)-2-((2-(2,6-difluoropyridin-3-yl)pyrimidin-4-yl)amino)pyridin-4-yl)amino)-1-methylcyclohexan-1-ol] | 1340 | 16.9 | 814 | 1980 | 49.7
5 | C[C@]1(O)CC[C@@H](Nc2cc(Nc3ccnc(-c4cccnc4F)n3)ncc2-c2ccn(C(F)F)n2)CC1 [Example 171, (1s,4s)-4-((5-(1-(Difluoromethyl)-1H-pyrazol-3-yl)-2-((2-(2-fluoropyridin-3-yl)pyrimidin-4-yl)amino)pyridin-4-yl)amino)-1-methylcyclohexan-1-ol] | 96.6 | 2.2 | 86.4 | 523 | 2.6
6 | CC(C)(CO)Cn1cc(-c2nccc(Nc3cc(N[C@H]4CC[C@@](C)(O)CC4)c(-c4ccn(C(F)F)n4)cn3)n2)cn1 [Example 173, (1s,4s)-4-((5-(1-(Difluoromethyl)-1H-pyrazol-3-yl)-2-((2-(1-(3-hydroxy-2,2-dimethylpropyl)-1H-pyrazol-4-yl)pyrimidin-4-yl)amino)pyridin-4-yl)amino)-1-methylcyclohexan-1-ol] | 333 | 0.9 | 107 | 16.7 | 3.9
7 | Cn1ccc(-c2cnc(Nc3ccnc(-c4cnn(S(=O)(=O)C5CC5)c4)n3)cc2N[C@H]2CC[C@@H](F)CC2)n1 [Example 174, N^2-(2-(1-(Cyclopropylsulfonyl)-1H-pyrazol-4-yl)pyrimidin-4-yl)-N^4-((1s,4s)-4-fluorocyclohexyl)-5-(1-methyl-1H-pyrazol-3-yl)pyridine-2,4-diamine] | 2.4 | 0.8 | 0.5 | 13.2 | 1.4
8 | Cn1nc(-c2cnc(Nc3ccnc(-c4cnn(S(=O)(=O)C5CC5)c4)n3)cc2N[C@H]2CC[C@@H](F)CC2)cc1C(F)(F)F [Example 175, N^2-(2-(1-(Cyclopropylsulfonyl)-1H-pyrazol-4-yl)pyrimidin-4-yl)-N^4-((1s,4s)-4-fluorocyclohexyl)-5-(1-methyl-5-(trifluoromethyl)-1H-pyrazol-3-yl)pyridine-2,4-diamine] | 41.8 | 14.5 | 8 | 91.9 | 25.3
9 | C[C@]1(O)CC[C@@H](Nc2cc(Nc3ccnc(-c4cnc5c(c4)CCCO5)n3)ncc2-c2ccn(C(F)F)n2)CC1 [Example 176, (1s,4s)-4-((5-(1-(Difluoromethyl)-1H-pyrazol-3-yl)-2-((2-(3,4-dihydro-2H-pyrano[2,3-b]pyridin-6-yl)pyrimidin-4-yl)amino)pyridin-4-yl)amino)-1-methylcyclohexan-1-ol] | 264 | 0.04 | 10.4 | 752 | 0.3
10 | C[C@]1(O)CC[C@@H](Nc2cc(Nc3ccnc(-c4cnn(CC(F)F)c4)n3)ncc2-n2ccc(C(F)F)n2)CC1 [Example 177, (1s,4s)-4-((2-((2-(1-(2,2-Difluoroethyl)-1H-pyrazol-4-yl)pyrimidin-4-yl)amino)-5-(3-(difluoromethyl)-1H-pyrazol-1-yl)pyridin-4-yl)amino)-1-methylcyclohexan-1-ol] | 1320 | 0.8 | 36.6 | 4620 | 0.8
11 | COc1ncc(-c2nccc(Nc3cc(N[C@H]4CC[C@@](C)(O)CC4)c(-c4ccn(C(F)F)n4)cn3)n2)cc1F [Example 178, (1s,4s)-4-((5-(1-(Difluoromethyl)-1H-pyrazol-3-yl)-2-((2-(5-fluoro-6-methoxypyridin-3-yl)pyrimidin-4-yl)amino)pyridin-4-yl)amino)-1-methylcyclohexan-1-ol] | 102 | 16.8 | 3 | 2110 | 46.2
12 | O=S(=O)(C1CC1)n1cc(-c2nccc(Nc3cc(NC4CCC(F)(F)C4)c(-c4ccn(C(F)F)n4)cn3)n2)cn1 (stereo not drawn) [Example 179, N^2-(2-(1-(Cyclopropylsulfonyl)-1H-pyrazol-4-yl)pyrimidin-4-yl)-N^4-(3,3-difluorocyclopentyl)-5-(1-(difluoromethyl)-1H-pyrazol-3-yl)pyridine-2,4-diamine] | 168 | 2.1 | 7.4 | 264 | 3.1
13 | FC(F)Cn1cc(-c2nccc(Nc3cc(NC4CCCC(F)C4)c(-c4ccn(C(F)F)n4)cn3)n2)cn1 (stereo not drawn) [Example 180, N^2-(2-(1-(2,2-Difluoroethyl)-1H-pyrazol-4-yl)pyrimidin-4-yl)-5-(1-(difluoromethyl)-1H-pyrazol-3-yl)-N^4-(3-fluorocyclohexyl)pyridine-2,4-diamine] | 410 | 1.1 | 23.2 | 418 | 1.3
14 | O=S(=O)(C1CC1)n1cc(-c2nccc(Nc3cc(NC4CCCC(F)C4)c(-c4ccn(C(F)F)n4)cn3)n2)cn1 (stereo not drawn) [Example 181, N^2-(2-(1-(Cyclopropylsulfonyl)-1H-pyrazol-4-yl)pyrimidin-4-yl)-5-(1-(difluoromethyl)-1H-pyrazol-3-yl)-N^4-(3-fluorocyclohexyl)pyridine-2,4-diamine] | 6.7 | 2.1 | 13.2 | 44.6 | 2.1
15 | Cc1nn(-c2cnc(Nc3ccnc(-c4cnn(S(=O)(=O)C5CC5)c4)n3)cc2N[C@H]2CC[C@@](C)(O)CC2)cc1C(F)(F)F [Example 182, (1s,4s)-4-((2-((2-(1-(Cyclopropylsulfonyl)-1H-pyrazol-4-yl)pyrimidin-4-yl)amino)-5-(3-methyl-4-(trifluoromethyl)-1H-pyrazol-1-yl)pyridin-4-yl)amino)-1-methylcyclohexan-1-ol] | 26.8 | 0.8 | 116 | 781 | 0.8
16 | CS(=O)(=O)c1ccn(-c2cnc(Nc3ccnc(-c4cnn(S(=O)(=O)C5CC5)c4)n3)cc2N[C@H]2CC[C@@](C)(O)CC2)n1 [Example 183, (1s,4s)-4-((2-((2-(1-(Cyclopropylsulfonyl)-1H-pyrazol-4-yl)pyrimidin-4-yl)amino)-5-(3-(methylsulfonyl)-1H-pyrazol-1-yl)pyridin-4-yl)amino)-1-methylcyclohexan-1-ol] | 42.8 | 0.6 | 37.1 | 624 | 0.8
17 | Cc1cnn(-c2cnc(Nc3ccnc(-c4cnn(S(=O)(=O)C5CC5)c4)n3)cc2N[C@H]2CC[C@@](C)(O)CC2)c1 [Example 184, (1s,4s)-4-((2-((2-(1-(Cyclopropylsulfonyl)-1H-pyrazol-4-yl)pyrimidin-4-yl)amino)-5-(4-methyl-1H-pyrazol-1-yl)pyridin-4-yl)amino)-1-methylcyclohexan-1-ol] | 4.8 | 0.05 | 2 | 32 | 0.1
18 | O=S(=O)(C1CC1)n1cc(-c2nccc(Nc3cc(N[C@H]4CC[C@@H](CC(F)F)CC4)c(-c4ccn(C(F)F)n4)cn3)n2)cn1 [Example 185, N^2-(2-(1-(Cyclopropylsulfonyl)-1H-pyrazol-4-yl)pyrimidin-4-yl)-N^4-((1s,4s)-4-(2,2-difluoroethyl)cyclohexyl)-5-(1-(difluoromethyl)-1H-pyrazol-3-yl)pyridine-2,4-diamine] | 51.5 | 3.8 | 59.5 | 87.1 | 11
